Values of other authors, collected in patent US20030113362A1, “Unique ascorbic acid derivatives with essential amino acids, nonessential amino acid and amino acids that do not occur in protein: the process for their preparation and use in research, medicine, physiology, pharmacology, nutrition, pharmaceuticals, and for cosmetic, commercial and industrial …” (priority 2001, published 2003).

Details: compared with ascorbic acid; test conditions not given

SMILES: O=C1O[C@H]([C@@H](O)CO)C(O)=C1OS(=O)(=O)O [L-ascorbate 2-sulphate]
- stability, times more stable than ascorbic acid: 20 times
